According to patent US7671058B2, “N-(3,4-disubstituted phenyl) salicylamide derivatives” (Institute of Medicinal Molecular Design, Inc., priority 2006, dated 2010):

Columns and labels:
NF-κB = NF-κB inhibition test: pNFκB-Luc luciferase reporter in U2-OS cells stimulated with human TNF α; assay type: cell-based; settings: human TNF α 10 ng/mL; for Inhibition Rate of NF-κB (%): compound 2 μM, 8 hours; for IC50: from inhibition rates at 1, 0.1, 0.01 and 0.001 μM, read-out: IC50 against activation of NF-κB
Experimental: (1) Transfection to U2-OS Cells and Inhibition Test of Activation
U2-OS cells were seeded at 2×10^4 cells/well in 96-well culture plate, and transfection was carried out using FuGENE 6 Transfection Reagent (Roche Diagnostics GmbH). The procedures of the transfection are shown below.
11 μg of reporter plasmid (pNFκB-Luc; Stratagene Corporation) and 1.1 μg of pCMV β (CLONTECH Laboratories, Inc.) were mixed in 1.1 mL of OPTI-MEM I medium (GIBCO BRL) (solution (A)).
[…] of FuGENE 6 Transfection Reagent was mixed in 1.1 mL of OPTI-MEM I medium (solution (B)).
(§1) The above solution (A) and solution (B) were mixed, let them stand for 15 minutes at room temperature, then, 8.8 mL of OPTI-MEM I medium was added and diluted.
To this transfection solution, U2-OS cell suspension (11 mL) in McCoy's 5A medium (GIBCO BRL) containing 10% Fetal Bovine Serum (FBS; GIBCO BRL) at […] was added and well mixed.
(§2) 0.2 mL of the above solution was dispensed into each well of 96-well culture plates, and incubated for 24 hours (37° C., 5% CO2).
After removal of 50 μL of medium from each well, 50 μL of McCoy's 5A medium (serum-free) containing compound of the present application was added to a final concentration of 0.01˜2 μM (0.001, 0.01, 0.1, 0.5, 1 or 2 μM), and the plates were incubated for 2 hours (37° C., 5% CO2).
10 μL of the McCoy's 5A medium (serum-free) containing human TNF α (PEPROTECH EC Ltd.) was added to each well to achieve a final concentration of 10 ng/mL, and incubated for 8 hours (37° C., 5% CO2).
(§3) Medium was completely removed and plates were preserved at −80° C. until measurements.
(§4) Cell lysates were prepared by adding 40 μL of Passive Lysis Buffer (Promega Corporation) to each well.
(§5) 10 μL of each lysate was transferred to 96-well white plates. 50 μL of PicaGene L.T.2.0 (TOYO INK MFG. CO., LTD.) was added to each well, then, luminescence was measured after leaving for 10 minutes at room temperature.
(§6) 10 μL of each lysate was transferred to 96-well black plates. 100 μL of Z Buffer (preparation method will be explained later) was added to each well, and fluorescence was measured immediately.
(§7) 10 μL of each lysate was transferred to 96-well clear plates. 200 μL of protein assay reagent prepared from the BCA Protein Assay Kit (Pierce Biotechnology, Inc.) was added to each well, and, absorbance was measured after incubation for 30 minutes at 37° C.
(§8) For measurements of luminescence, fluorescence, and absorbance, microplate reader GENios (TECAN G.M.B.H.) was used.
(3) Calculation of Inhibition Rate
Luminescence values that show the degree of activation by TNF α stimulation were normalized by β-gal values that show transfection efficiency. Using the normalized values, the following calculation was carried out using the luminescence values that increased by TNF α stimulation. Inhibition Rate(%)=[…] E: In the presence of the compound of the present application, increased luminescence values by TNF α stimulation C: Without the presence of the compound of the present application, increased luminescence values by TNF α, stimulation
The values of protein assay by BCA reagent were used for a simple assessment of cytotoxicity, and not used for the calculation of inhibition rates.
NF-κB Inhibition Rates are shown below. The values in parentheses in the table represent the concentration of the compound of the present application.
NF-κB inhibition rates where the concentrations of the compound of the present application were 1, 0.1, 0.01 and 0.001 μM were calculated, and the 50% inhibitory concentrations (IC50) of the compounds of the present application against activation of NF-κB were evaluated.

STAT6 = STAT6 inhibition test: (GLS)x8/pTA-Luc luciferase reporter in U2-OS cells stimulated with human IL-4; assay type: cell-based; settings: human IL-4 40 ng/mL; for Inhibition Rate of STAT6 (%): compound 2 μM, 8 hours; for IC50: from inhibition rates at 1, 0.1, 0.01 and 0.001 μM, read-out: IC50 against activation of STAT6
From the text: (1) Construction of a STAT6 Reporter Plasmid
The Oligonucleotides (SEQ ID: 1, 2) containing two copies of STAT6 binding sequences (refer to J. Biol. Chem., vol. 276, No. 9, pp. 6675-6688 (2001).) were synthesized, and integrated into the enhancer region of the reporter plasmid pTA-Luc Vector (CLONTECH Laboratories, Inc.) at the restriction enzyme BgIII site.
When the oligonucleotide is integrated in positive direction into the plasmid, the upstream BglII site is not reconstructed. Therefore, STAT6 binding sequences can be increased by repeating integration of the oligonucleotide at the restriction enzyme BglII site.
In the present test, a plasmid including eight integrated STAT6 binding sequences was constructed and provided for the reporter assay as (GLS)x8/pTA-Luc. Confirmation of the sequences was carried out using an automated fluorescence sequencer (Model 310 (Applied Biosystems)).
(2) Transfection into U2-OS Cells and Inhibition Test for STAT6 Activation
U2-OS cells were seeded to at 2×10^4 cells/well in 96-well culture plates, and transfection was carried out using FuGENE 6 Transfection Reagent (Roche Diagnostics GmbH). The procedures of the transfection are shown below.
11 μg of reporter plasmid ((GLS)x8/pTA-Luc) and 1.1 μg of pCMV β (CLONTECH Laboratories, Inc.) were mixed in 1.1 mL of OPTI-MEM I medium (GIBCO BRL) (solution (A)).
33 μL of FuGENE 6 Transfection Reagent was mixed in 1.1 mL of OPTI-MEM I medium (solution (B)).
as §1
To this transfection solution, U2-OS cell suspension (11 mL) in McCoy's 5A medium (GIBCO BRL) containing 10% Fetal Bovine Serum (FBS; GIBCO BRL) at 2×10^5 cells/mL was added and well mixed.
as §2
After removal of 50 μL of medium from each well, 50 μL of McCoy's 5A medium (serum-free) containing compound, of the present application was added to a final concentration of 0.01˜2 μM (0.001, 0.01, 0.1, 0.5, 1 or 2 μM), and the plates were incubated for 2 hours (37° C., 5% CO2).
10 μL of the McCoy's 5A medium (serum-free) containing human IL-4 (R&D Systems, Inc) was added to each well to achieve a final concentration of 40 ng/mL, and incubated for 8 hours (37° C., 5% CO2).
as §3, §4, §5, §6, §7, §8
(4) Calculation of Inhibition Rate
Luminescence values that show the degree of activation by IL-4 stimulation were normalized by β-gal values that show transfection efficiency. Using the normalized values, the following calculations were carried out using the luminescence values increased by IL-4 stimulation. Inhibition Rate(%)=[…] E: In the presence of the compound of the present application, increased luminescence value by IL-4 stimulation C: Without the presence of the compound of the present application, increased luminescence value by IL-4 stimulation […]

Row | Compound | Inhibition Rate of NF-κB (%) (NF-κB) | IC50 (NF-κB) [nM] | Inhibition Rate of STAT6 (%) (STAT6) | IC50 (STAT6) [nM]
1 | Cl.NC1CCN(c2ccc(NC(=O)c3cc(Br)ccc3O)cc2F)CC1 [compound 67] | 93 (2 μM) % | 16 | 94 (2 μM) % | 5.32
2 | CN1CCN(c2ccc(NC(=O)c3cc(Br)ccc3O)cc2F)CC1 [compound 69] | 76 (2 μM) % | 30.3 | 79 (2 μM) % | 10.6
3 | Cl.NC1CCN(c2ccc(NC(=O)c3ccc(Cl)cc3O)cc2F)CC1 [compound 71] | 94 (2 μM) % | 8.41 | 92 (2 μM) % | 3.36
4 | CCC1CN(c2ccc(NC(=O)c3cc(Cl)ccc3O)cc2F)CCN1.Cl (centres unmarked) [compound 72] | 41 (2 μM) % |  | 37 (2 μM) % | 
5 | Cl.NC1CCN(c2ccc(NC(=O)c3cc(Cl)ccc3O)cc2C(F)(F)F)CC1 [compound 74] | 84 (2 μM) % | 66.5 | 80 (2 μM) % | 105
6 | Cl.NC1CCN(c2ccc(NC(=O)c3cc(Cl)ccc3O)cc2Cl)CC1 [compound 75] | 78 (2 μM) % | 35.8 | 76 (2 μM) % | 76
7 | Cl.O=C(Nc1ccc(N2CCCNCC2)c(C(F)(F)F)c1)c1cc(Cl)ccc1O [compound 76] | 94 (2 μM) % | 20 | 95 (2 μM) % | 32.9
8 | CN1CCCN(c2ccc(NC(=O)c3ccc(Cl)cc3O)cc2F)CC1 [compound 77] | 89 (2 μM) % | 8.44 | 90 (2 μM) % | 7.29
9 | CN1CCN(c2ccc(NC(=O)c3cc(Cl)ccc3O)cc2C#N)CC1 [compound 79] | 59 (2 μM) % |  | 59 (2 μM) % | 
10 | O=C(Nc1ccc(N2CCCNCC2)c(F)c1)c1ccc(Cl)cc1O [compound 80] | 89 (2 μM) % | 8.11 | 91 (2 μM) % | 2.23
11 | Cl.O=C(Nc1ccc(N2CCCNCC2)c(Cl)c1)c1cc(Cl)ccc1O [compound 81] | 90 (2 μM) % | 17.8 | 92 (2 μM) % | 10.9
12 | CC1CCC(C)N1c1ccc(NC(=O)c2cc(Cl)ccc2O)cc1F.Cl (centres unmarked) [compound 83] | 59 (2 μM) % |  | 80 (2 μM) % | 
13 | CC1CCC(C)N1c1ccc(NC(=O)c2cc(Cl)ccc2O)cc1F (centres unmarked) [compound 84] | 61 (2 μM) % |  | 83 (2 μM) % | 
14 | CC1CN(c2ccc(NC(=O)c3cc(Cl)ccc3O)cc2F)C(C)CN1.Cl.Cl (centres unmarked) [compound 85] | 79 (2 μM) % |  | 72 (2 μM) % | 
15 | CN1CCCN(c2ccc(NC(=O)c3cc(Br)ccc3O)cc2F)CC1 [compound 86] | 93 (2 μM) % | 7.62 | 93 (2 μM) % | 10.8
16 | O=C(Nc1ccc(N2CCCNCC2)c(F)c1)c1cc(Br)ccc1O [compound 87] | 93 (2 μM) % | 11.7 | 91 (2 μM) % | 18.3
17 | CC1CNCCN1c1ccc(NC(=O)c2cc(Cl)ccc2O)cc1F.Cl (centres unmarked) [compound 88] | 90 (2 μM) % | 21.9 | 90 (2 μM) % | 25.5
18 | CCC1CNCCN1c1ccc(NC(=O)c2cc(Cl)ccc2O)cc1F.Cl (centres unmarked) [compound 89] | 62 (2 μM) % |  | 62 (2 μM) % | 
19 | CN1CCN(c2ccc(NC(=O)c3cc(C#N)ccc3O)cc2F)CC1.Cl [compound 90] | 18 (2 μM) % |  | 11 (2 μM) % | 
